What is called Ki is a measure of affinity in units of concentration, obtained from inhibition or displacement.

The target in test [1] is T1, DDR1 (Homo sapiens, UniProt Q08345).
T1 construct: purchased Carna Biosciences
In words: LanthaScreen Europium Kinase Binding assay, DDR1. Conditions: 5 nM DDR1, 20 nM Kinase Tracer 178, 1 h at rt; Ki from IC50 by Cheng-Prusoff; read-out: Ki DDR1. The procedure:
(§1) DDR1 and DDR2 binding assays were performed using Life Technologies LanthaScreen™ Europium Kinase Binding assay. […] IC50 values were determined in GraphPad Prism 7.0 software, using 4 parameter model: log (inhibitor) vs. response. IC50 values were converted in Ki using the Cheng-Prusoff equation (Ki-IC50/(1+ [Tracer]/Kd).
For orientation: In TR-FRET formats the signal depends on donor and acceptor labels being close together.

The target of test [2] is T2, DDR2 (Homo sapiens, UniProt Q16832).
T2 construct: purchased Life Technologies
T2 sequence (Q16832 22-855): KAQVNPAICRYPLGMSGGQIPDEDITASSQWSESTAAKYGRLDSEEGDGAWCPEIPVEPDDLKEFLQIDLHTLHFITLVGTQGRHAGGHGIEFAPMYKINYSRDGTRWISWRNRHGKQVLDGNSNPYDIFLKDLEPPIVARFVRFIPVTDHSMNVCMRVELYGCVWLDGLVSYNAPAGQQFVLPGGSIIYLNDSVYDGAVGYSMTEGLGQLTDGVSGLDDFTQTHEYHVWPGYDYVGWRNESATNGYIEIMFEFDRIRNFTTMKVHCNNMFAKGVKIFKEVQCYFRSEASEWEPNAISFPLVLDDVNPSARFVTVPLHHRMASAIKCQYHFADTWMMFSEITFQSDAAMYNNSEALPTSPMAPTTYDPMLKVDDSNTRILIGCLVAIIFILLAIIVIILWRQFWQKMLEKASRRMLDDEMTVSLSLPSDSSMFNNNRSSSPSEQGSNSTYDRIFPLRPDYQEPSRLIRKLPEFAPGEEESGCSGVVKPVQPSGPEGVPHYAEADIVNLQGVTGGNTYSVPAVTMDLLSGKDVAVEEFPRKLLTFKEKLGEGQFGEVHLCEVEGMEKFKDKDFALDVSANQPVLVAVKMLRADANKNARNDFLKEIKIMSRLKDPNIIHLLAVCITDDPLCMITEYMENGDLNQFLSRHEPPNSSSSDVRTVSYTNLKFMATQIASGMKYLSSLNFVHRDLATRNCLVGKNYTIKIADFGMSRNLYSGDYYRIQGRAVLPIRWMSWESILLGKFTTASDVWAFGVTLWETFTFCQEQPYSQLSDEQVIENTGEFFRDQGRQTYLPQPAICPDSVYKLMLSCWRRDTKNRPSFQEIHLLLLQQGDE
In words: LanthaScreen Europium Kinase Binding assay, DDR2. Conditions: 5 nM DDR2, 10 nM Kinase Tracer 178, 1 h at rt; Ki from IC50 by Cheng-Prusoff; read-out: Ki DDR2. The procedure:
as §1

Structures are written as SMILES.

T1 sequence (Q08345 19-913): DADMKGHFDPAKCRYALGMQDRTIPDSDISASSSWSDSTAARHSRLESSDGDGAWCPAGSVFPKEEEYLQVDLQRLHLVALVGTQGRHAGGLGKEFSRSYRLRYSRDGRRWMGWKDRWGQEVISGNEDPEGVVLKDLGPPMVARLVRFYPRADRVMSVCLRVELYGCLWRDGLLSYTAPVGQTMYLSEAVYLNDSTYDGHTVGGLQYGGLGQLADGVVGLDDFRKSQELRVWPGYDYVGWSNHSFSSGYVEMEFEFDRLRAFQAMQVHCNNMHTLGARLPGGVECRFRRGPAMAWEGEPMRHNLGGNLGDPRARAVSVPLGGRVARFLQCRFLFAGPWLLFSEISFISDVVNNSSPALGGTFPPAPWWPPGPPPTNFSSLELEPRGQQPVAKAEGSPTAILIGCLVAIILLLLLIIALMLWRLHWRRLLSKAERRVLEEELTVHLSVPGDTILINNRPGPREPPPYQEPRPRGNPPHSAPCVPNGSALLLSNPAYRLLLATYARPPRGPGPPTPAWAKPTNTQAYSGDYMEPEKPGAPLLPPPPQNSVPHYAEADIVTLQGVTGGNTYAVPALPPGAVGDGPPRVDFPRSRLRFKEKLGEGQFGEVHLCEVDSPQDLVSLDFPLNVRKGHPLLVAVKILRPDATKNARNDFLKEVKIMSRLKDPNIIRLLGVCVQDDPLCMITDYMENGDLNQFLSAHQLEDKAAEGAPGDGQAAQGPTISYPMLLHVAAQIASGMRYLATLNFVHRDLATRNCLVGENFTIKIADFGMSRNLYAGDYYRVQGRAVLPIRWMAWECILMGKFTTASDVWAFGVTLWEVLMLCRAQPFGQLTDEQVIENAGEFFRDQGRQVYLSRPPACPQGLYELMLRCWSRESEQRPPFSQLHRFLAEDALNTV

In the case of `O=C(Nc1cccc(C(F)(F)F)c1)NC1CC2(C1)CN(C(=O)c1cnc3ccccn13)C2` [Example 1, 1-(2-(imidazo[1,2-a]pyridine-3-carbonyl)-2-azaspiro[3.3]heptan-6-yl)-3-(3-(trifluoromethyl)phenyl)urea], the figures for the Ki in test [1] and in test [2] were under 5 nM and 5 to 25 nM, respectively.

For the compound `O=C(Nc1cccc(C(F)(F)F)c1)NC1CC2(C1)CN(C(=O)c1cnn3ccncc13)C2` [Example 2, 1-(2-(pyrazolo[1,5-a]pyrazine-3-carbonyl)-2-azaspiro[3.3]heptan-6-yl)-3-(3-(trifluoromethyl)phenyl)urea], the Ki in test [1] was under 5 nM; in test [2] it was 5 to 25 nM.

For the compound `O=C(Nc1cccc(C(F)(F)F)c1)NC1CC2(C1)CN(C(=O)c1cnc3[nH]ccc3c1)C2` [Example 3, 1-(2-(1H-pyrrolo[2,3-b]pyridine-5-carbonyl)-2-azaspiro[3.3]heptan-6-yl)-3-(3-(trifluoromethyl)phenyl)urea], the Ki in test [1] and in test [2] was 25 to 100 nM each time.

For `O=C(Nc1cccc(C(F)(F)F)c1)NC1CC2(C1)CN(C(=O)c1cnn3ccsc13)C2` [Example 4, 1-(2-(pyrazolo[5,1-b]thiazole-7-carbonyl)-2-azaspiro[3.3]heptan-6-yl)-3-(3-(trifluoromethyl)phenyl)urea], the Ki in test [1] and in test [2] was under 5 nM throughout.

For the compound `CN1CCN(c2ccc3ncc(C(=O)N4CC5(CC(NC(=O)Nc6cccc(C(F)(F)F)c6)C5)C4)n3c2)CC1` [Example 5, 1-(2-(6-(4-methylpiperazin-1-yl)imidazo[1,2-a]pyridine-3-carbonyl)-2-azaspiro[3.3]heptan-6-yl)-3-(3-(trifluoromethyl)phenyl)urea], the inhibitory constant (Ki) in test [1] was under 5 nM; in test [2], 5 to 25 nM.

For the compound `O=C(Nc1cccc(C(F)(F)F)c1)NC1CC2(C1)CN(C(=O)c1cnc3n1CCOC3)C2` [Example 6, 1-(2-(5,6-dihydro-8H-imidazo[2,1-c][1,4]oxazine-3-carbonyl)-2-azaspiro[3.3]heptan-6-yl)-3-(3-(trifluoromethyl)phenyl)urea], the inhibitory constant (Ki) in test [1] is under 5 nM; in test [2] it was 5 to 25 nM.

Consider `O=C(Nc1cccc(C(F)(F)F)c1)NC1CC2(C1)CN(C(=O)c1cnc3cccnn13)C2` [Example 7, 1-(2-(imidazo[1,2-b]pyridazine-3-carbonyl)-2-azaspiro[3.3]heptan-6-yl)-3-(3-(trifluoromethyl)phenyl)urea], for which the Ki in test [1] and in test [2] was 5 to 25 nM throughout.

As for `Cn1cncc1C(=O)N1CC2(CC(NC(=O)Nc3cccc(C(F)(F)F)c3)C2)C1` [Example 8, 1-(2-(1-methyl-1H-imidazole-5-carbonyl)-2-azaspiro[3.3]heptan-6-yl)-3-(3-(trifluoromethyl)phenyl)urea], the inhibition constant (Ki) in test [1] was under 5 nM; in test [2] it was 5 to 25 nM.

In the case of `Cn1ccn2ncc(C(=O)N3CC4(CC(NC(=O)Nc5cccc(C(F)(F)F)c5)C4)C3)c12` [Example 9, 1-(2-(1-methyl-1H-imidazo[1,2-b]pyrazole-7-carbonyl)-2-azaspiro[3.3]heptan-6-yl)-3-(3-(trifluoromethyl)phenyl)urea], the Ki in test [1] and in test [2] was under 5 nM throughout.

As for `O=C(Nc1cccc(C(F)(F)F)c1)NC1CC2(C1)CN(Cc1cnc3cnccn13)C2` [Example 11, 1-(2-(imidazo[1,2-a]pyrazin-3-ylmethyl)-2-azaspiro[3.3]heptan-6-yl)-3-(3-(trifluoromethyl)phenyl)urea], the Ki in test [1] and in test [2] was 5 to 25 nM throughout.

For `O=C(Nc1cccc(C(F)(F)F)c1)NC1CC2(C1)CN(Cc1cnc3[nH]ncc3c1)C2` [Example 12, 1-(2-((1H-pyrazolo[3,4-b]pyridine-5-yl)methyl)-2-azaspiro[3.3]heptan-6-yl)-3-(3-(trifluoromethyl)phenyl)urea], the inhibition constant Ki in test [1] and in test [2] was 5 to 25 nM each time.
